Assay results as given in patent publication US11986522B2, “Immunotherapeutic composition and uses thereof” (ARAVAX PTY LTD, priority 2013, dated 2024).
Entries after “also recorded” stand apart in the source; their conditions may differ. No end group written: not given here.

How the values were obtained:
HLA-DR, HLA-DQ, HLA-DP = assay: HLA class II blocking assays (anti-HLA mAb, TCL proliferation); assay type: cell-based, human; details: for antibody that blocked T cell recognition of the epitope: Ara h 2 epitopes
Description: Materials and Methods Subjects: Peanut-allergic adult subjects were recruited from The Alfred Allergy Clinic, Melbourne, Australia. […] Some subjects were genotyped (HLA-DRB1, -DQB1 and -DPB1, exon 2) by the Victorian Transplantation and Immunogenetics Service. The study was approved by The Alfred and Monash University Ethics Committees and informed written consent obtained from each subject. Antigens: Crude peanut extract (CPE) was prepared from commercial unsalted, dry-roasted peanuts as described elsewhere, (de Leon et al. Clin Exp Allergy. 2003; 33(9):1273-80) dialyzed against phosphate-buffered saline (PBS) and filter-sterilized (0.2 μm). Natural Ara h 1 and Ara h 2 were enriched from CPE based on published methodology. (de Jong E C et al. Clin Exp Allergy. 1998; 28(6):743-51) Briefly, CPE was buffer exchanged into 20 mM TRIS-bis-propane (TBP), pH 7.2, using Vivaspin columns (Sartorius Stedim Biotech S.A., Aubagne, France) and applied onto a 5 mL Mono-Q 10/10 column (Pharmacia FPLC System, St Albans, UK) equilibrated with TBP. After washing with TBP, a linear gradient of 30 mL 0-1 M NaCl/TBP was applied to elute bound proteins (1 mL/min). Fractions, 0.5 mL, were analyzed by SDS-PAGE and those containing Ara h 1 or Ara h 2 with minimal other proteins pooled and dialyzed against PBS. Endotoxin contents were 1.7, 4.0 and 78.0 EU/mg for CPE, Ara h 1 and Ara h 2 respectively (Endpoint Chromogenic LAL assay, Lonza, Walkersville, USA). Peptides (Mimotopes, Victoria, Australia and GenScript USA Inc, New Jersey, USA) were reconstituted at 1-4 mg/ml in 10% dimethyl sulfoxide/PBS (20-mers and truncated peptide sets) or PBS, 1-2% acetic acid or 0.1M ammonium bicarbonate buffers as specified (custom-synthesized core epitope peptides). All antigens were confirmed to be neither mitogenic nor toxic as described (Eusebius N P et al., Int Arch Allergy Immunol. 2002; 127(3):234-44). Generation of Ara h 1 and Ara h 2-specific CD4+ T-cell lines (TCL): Ara h 1 or Ara h 2-specific oligoclonal TCL were generated from peripheral blood mononuclear cells (PBMC) of peanut-allergic subjects using 5,6-carboxyfluorescein diacetate succinimidylester (CFSE)-based methodology. (Mannering S I et al., J Immunol Methods. 2005; 298(1-2):83-92; Prickett S R, et al., J Allergy Clin Immunol. 2011; 127(3):608-15 el-5). Briefly, culturing was performed in RPMI-1640 containing 2 mM L-glutamine, 100 IU/mL penicillin-streptomycin and 5% human AB serum (Sigma-Aldrich, St Louis, USA) (cRPMI). PBMC were labelled with 0.1 μM CFSE (Molecular Probes, Eugene, USA) and cultured (2.5×10^6/mL) with cRPMI alone, CPE (100 μg/mL), Ara h 1 or Ara h 2 (10 μg/mL), Ara h 1 or Ara h 2 20-mer-peptide pools (10 μg/mL/peptide) or as a control, tetanus toxoid (TT; 10 LfU/mL; Statens Serum Institute, Copenhagen, Denmark) for 7 days at 37° C. After staining with CD4-PE and 7AAD (BD Pharmingen, San Diego, USA), CD4+CFSEdim7AAD-cells were sorted (10 cells/well) into 96-U-well plates containing irradiated allogeneic feeder-cells, anti-CD3 (OKT-3), rIL-2 (Cetus, Emeryville, USA) and Fungizone (Invitrogen, Carlsbad, USA) as described. Cells were fed with rIL-2 as required and after 10-14 days, transferred to 48-well plates and tested for proliferation to Ara h 1 or Ara h 2 (10 μg/mL). Ara h 1 or Ara h 2-positive TCL were expanded with anti-CD3 and rIL-2 in T25 culture flasks (BD, Franklin Lakes, USA) for 10-12 days then tested for specificity (proliferation) to overlapping 20-mer peptides spanning the respective sequence (10 μg/mL). Core epitope sequences were mapped within selected 20-mers using peptide sets truncated from the N- or C-terminus of the 20-mer as described (Prickett S R, et alc. J Allergy Clin Immunol. 2011; 127(3):608-15 el-5). T-cell assays:All culturing was performed in RPMI-1640 containing 2 mM L-glutamine, 100 IU/mL penicillin-streptomycin and 5% heat-inactivated human AB serum (Sigma-Aldrich, St Louis, USA) (cRPMI). […]

[1] = tested on: HLA-DRB1, -DQB1 and -DPB1; assay: HLA-genotyping of subjects whose TCL recognise the epitopes; parameters: species or system human; details: for HLA allele presenting the epitope / present in all recognising subjects: HLA-typed subjects; for HLA-binding degeneracy (presented by): no shared allele between responding subjects
[2] = Peptide solubility in buffers; assay type: physicochemical
[3] = tested on: PBMC CD4+ T cells of peanut-allergic subjects; assay: 7-day CFSE assay of peptide-induced CD4+ T-cell proliferation/activation within whole PBMC; assay type: cell-based, human; details: screen of 25 new subjects
specific IgE = details: cited from earlier work
[4] = Table 4, dominant core T cell epitopes

| Molecule | HLA-restriction (HLA-DR, HLA-DQ, HLA-DP; [4]) | HLA-restriction (HLA-DR, HLA-DQ, HLA-DP; Table 7, 10 candidate peptides) | other results |
| --- | --- | --- | --- |
| KAMVIVVVNKG (KAMVIVVVNKGTGNLELVAVD; listed as Arachis hypogaea) [50/51 core] | HLA-DR |  |  |
| VEIKEGALMLPHFNSKA (listed as Arachis hypogaea) [Peptide 4] | HLA-DQ | HLA-DQ |  |
| ELNEFENNQRSMSEALQ [10 + 10/11 core] |  | HLA-DR; also recorded: or -DQ |  |
| SQLERANLRPCEQ [4 core] | HLA-DP |  | antibody that blocked T cell recognition of the epitope (HLA-DR, HLA-DQ, HLA-DP): anti-HLA-DP; HLA allele presenting the epitope / present in all recognising subjects [1]: DPB1*04:01 |
| ELNEFENNQRCM [10 core] | HLA-DR |  |  |
| NNFGKLFEVKPDKKNPQLQ (listed as Arachis hypogaea) [46 + 47 core] |  | HLA-DR |  |
| GDVFIMPAAHPVAINASSE [Peptide 7, GDVFIMPAAHPVAINASSE] |  |  | solubility of the version without the added C-terminal ‘E’ [2]: insoluble except in toxic buffers; solubility in PBS, 0.1M NH4HCO3, or 1-2% acetic acid ([2]; redesigned new version for peptide 7): soluble; peptide 7 in Table 7) |
| EVKPDKKNPQLQ (listed as Arachis hypogaea) [Peptide 15] | HLA-DR |  | T cell responses compared with longer version containing an additional epitope [3]: Induced equivalent T cell |
| ANLRPSEQHLM [Peptide 21] |  |  | T cell responses compared with longer version containing an additional epitope [3]: Induced equivalent T cell |
| RIVQIEAKPNTLV (listed as Arachis hypogaea) [24 core] | HLA-DR |  |  |
| NNFGKLFEVKPDKKNPQ [46 core] | HLA-DR |  |  |
| KAMVIVVVNKGTGNLELVAV [51 ‘core’] | HLA-DR | HLA-DR |  |
| WSTRSSENNEGVIVKVSKE [40 core] | HLA-DQ | HLA-DQ |  |
| ANLRPCEQHLM [4/5 core] | HLA-DR; also recorded: HLA-DQ |  | antibody that blocked T cell recognition of the epitope (HLA-DR, HLA-DQ, HLA-DP): anti-HLA-DR; HLA-DR molecules presenting the epitope [1]: at least 2; HLA allele presenting the epitope / present in all recognising subjects [1]: HLA-DQB1*06:09; HLA-binding degeneracy (presented by) [1]: multiple HLA-DRB1 molecules |
| GDVFIMPAAHPVAINASS (listed as Arachis hypogaea) [57 core] | HLA-DR; also recorded: HLA-DQ | HLA-DR; also recorded: HLA-DQ |  |
| FQNLQNHRIVQIEAKPNTLV (listed as Arachis hypogaea) [Peptide 1] |  | HLA-DR |  |
| RELRNLPQQCGLRA [15 core] |  |  | antibody that blocked T cell recognition of the epitope (HLA-DR, HLA-DQ, HLA-DP): anti-HLA-DR; HLA-binding degeneracy (presented by) [1]: multiple HLA-DRB1 molecules |
| ALMLPHFNSKAMVIVVV [50 core] | HLA-DR | HLA-DR |  |
| EFENNQRCMCEALQ [10/11 core] | HLA-DQ |  | HLA allele presenting the epitope / present in all recognising subjects [1]: DRB1*15:01; HLA-binding degeneracy (presented by) [1]: multiple HLA-DQB1 molecules |
| FQNLQNHRIV (listed as Arachis hypogaea) [23 core] | HLA-DR |  |  |
| EFENNQRSMSEALQ [Peptide 23] |  |  | T cell responses compared with longer version containing an additional epitope [3]: Induced equivalent T cell |
| Ara h 2: major peanut allergen, glycoprotein of the conglutin seed storage family (protein, listed as Arachis hypogaea) LTILVALALFLLAAHASARQQWELQGDRRCQSQLERANLRPCEQHLMQKIQRDEDSYERDPYSPSQDPYSPSPYDRRGAGSSQHQERCCNELNEFENNQRCMCEALQQIMENQSDRLQGRQQEQQFKRELRNLPQQCGLRAPQRCDLDVESGGRDRY |  |  | sera reactive with Ara h 2 (specific IgE; Burks et al, 1992): 6 out of 6; subjects with specific IgE to purified natural Ara h 2 (specific IgE; de Jong's group): approximately 78%; subjects possessing specific IgE to Ara h 2 (specific IgE; western blotting of crude peanut extract, Clarke): 71%; subjects possessing IgE towards recombinant form (specific IgE; western blotting, Kleber-Janke et al.): 85% |
